{
  "source": "ChEMBL document CHEMBL1159179",
  "about": "“Glucuronide prodrugs of hydroxy compounds for antibody directed enzyme prodrug therapy (ADEPT) : A phenol nitrogen mustard carbamate” (Bioorg Med Chem Lett, 1997)",
  "key": {"LoVo": {"test_system": "LoVo", "assay": "Tested for the cytotoxic effect in LoVo cells, activity", "format": "functional, cell-based", "details": "Homo sapiens"}, "[1]": {"assay": "Half life period was determined", "format": "ADME", "details": "rat"}},
  "data": [
    {"smiles": "CN(C(=O)Oc1ccc(N(CCCl)CCCl)cc1)c1cc([N+](=O)[O-])ccc1O[C@@H]1O[C@@H](C(=O)O)[C@@H](O)[C@H](O)[C@@H]1O", "values": [
      {"measurement": "IC50", "setting": "LoVo", "result": "> 830", "unit": "µM"},
      {"measurement": "half-life", "setting": "[1]", "result": 44, "unit": "min"}
    ]}
  ]
}
